Reference: US7964613B2 (Asahi Kasei Pharma Corporation, priority 2007, dated 2011)

Columns and labels:
[1] = tested on: rabbit normal intraocular pressure; test: Intraocular pressure reducing action; assay type: in vivo, Japanese white rabbit; details: Oryctolagus cuniculus, topical, read-out: intraocular pressure reducing degree; for inhibition in vivo at 3000 µM: 3 mM aqueous solution, 50 μl to the left eye, max IOP reduction (2, 4, 6 hours) / value immediately before administration; for inhibition in vivo at 1000 µM: test compound of 1 mM, same test as Test Example 3
Procedure, shortened: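 Japanese white rabbits (~2 kg) under topical anaesthesia received 50 μl of a 3 mM aqueous test solution in the left eye, right eye untreated. IOP read by tonometer before and at 2, 4, 6 h; maximal left–right difference divided by pre-dose IOP ×100 gives % reduction.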

[2] = tested on: mouse neuroblastoma cell strain N1E-115; test: Inhibitory effect on neurite retraction (LPA-induced); assay type: cell-based; details: mouse/rat NG108-15; 10 μM compound, 1 μM LPA, N1E-115 cells
Description: An experiment for Inhibitory effect on neurite retraction using mouse neuroblastoma cell strain N1E-115 was performed according to the method of Hirose, M. et al. (J. Cell. Biol., 141, pp. 1625-1636 (1998)). This method utilizes the fact that LPA (lysophosphatidic acid), which is a endogenous substance, induces neurite retraction, and is a method of evaluating how much a drug can inhibit the LPA-induced neurite retraction and thereby evaluating potency of inhibition of neuronal degeneration and potency of neuronal regeneration of the drug. N1E-115 cells cultured in a DMEM solution containing 20% heat-inactivated fetal bovine serum were plated on a 6-well plate (IWAKI) at a density of 40,000 cells/well, and cultured overnight at 37° C. in the same culture medium in a 5% CO2 incubator. In order to induce differentiation of the N1E 115 cells into nerve cells, the culture medium was changed to the serum-free DMEM solution, and the cells were cultured for 1 or 2 days at 37° C. in the 5% CO2 incubator until most of the cells extended the neurites. On the examination day, each compound of the present invention was added at a final concentration of 10 μM, incubation was performed for 30 minutes, then LPA (Sigma) was added at a final concentration of 1 μM, and incubation was further performed for 10 minutes. To the control, the same volume of phosphate buffered saline as the solvent was added. After completion of the incubation, glutaraldehyde was added at a final concentration of 5% to fix the cells. […] The inhibition rate (%) of each drug was calculated by using the following equation. Inhibition rate(%)=100−(RCP obtained with drug to be evaluated−RCP of control)/(RCP obtained with LPA−RCP of control)×100

[3] = tested on: thoracic aorta ring sample; test: Rat vascular smooth muscle relaxing action (phenylephrin contraction); details: cumulative phenylephrin, contraction relative to 60 mM KCl
Description: Examination of rat vascular smooth muscle relaxing action was performed as follows. A rat was anesthetized with pentobarbital sodium, and bled from the carotid artery, and then the thoracic aorta was extracted. The extracted vessel was immersed in ice-cooled Krebs-Henseleit nutrient solution bubbled with a mixed gas of 95% O2+5% CO2 to wash out the blood in the internal cavity of the vessel with the nutrient solution, and then stored overnight in the nutrient solution at 4° C. Then, connective tissues and lipids were removed from the vessel under a stereoscopic microscope, and a ring sample having a width of about 3 mm was prepared. The ring sample was hung in an organ bath containing the nutrient solution of 37° C., and a resting tension of 2.5 g was loaded on the sample. After the ring sample was stabilized for about 90 minutes, it was confirmed that a contraction reaction could be obtained by addition of 60 mM KCl alone. A test drug was added to the nutrient solution at an appropriate final concentration, and incubation was performed for 10 minutes. Then, phenylephrin was cumulatively added so that the concentration should become 1 nM, 10 nM, 100 nM, 1 μM and 10 μM.

intraocular pressure = test: Intraocular pressure reduction enhancing action in monkey; assay type: in vivo; details: cynomolgus monkey, 0.01 weight % aqueous solution, 30 μL
Description: Moreover, as for the test compound used for combination use, similar effect can be obtained also with the compounds of the present invention represented with the example numbers mentioned in Test Example 3. The test is performed by using cynomolgus monkeys sufficiently naturalized for the operation of fixation on a monkey chair and ophathalmotonometry.
As the test compound, the 19-1 compound is dissolved in physiological saline, and the solution is neutralized by addition of sodium hydroxide (pH 7.0 to 8.0) to prepare a 0.01 weight % aqueous solution (19-1 compound aqueous solution). As a drug for combination use, latanoprost (trade name: Xalatan, Pfizer) is used as the marketed formulation per se. The test aqueous solution or the drug for combination use is instilled to the left eye, and the right eye is not treated (control eye). […] After initial intraocular pressure values of the monkeys are measured for each group, 30 μL of physiological saline is instilled to the control group, single drug group 1, and single drug group 2, and latanoprost is instilled in the same volume to the combination use group. […] Then, the intraocular pressure is measured over time for each group.

CN[C@H]1CCN(S(=O)(=O)c2cccc3c(O)ncc(Cl)c23)C1 [Example 36-1, (S)-1-(1-Hydroxy-4-chloro-5-isoquinolinesulfonyl)-3-(methylamino)pyrrolidine]
inhibition in vivo at 3000 µM [1]: 10 to 20%
inhibition at 10 µM [2]: ≥ 50%
IC50 [3]: 100 nM

CN[C@H]1CCN(S(=O)(=O)c2cccc3cncc(Cl)c23)C1 [Example 19-3, (S)-1-(4-Chloro-5-isoquinolinesulfonyl)-3-(methylamino)pyrrolidine]
inhibition in vivo at 3000 µM [1]: ≥ 20%
inhibition in vivo at 1000 µM [1]: ≥ 20%
inhibition at 10 µM [2]: ≥ 50%
IC50 [3]: 300 nM

N[C@H]1CCN(S(=O)(=O)c2cccc3cncc(Cl)c23)C1 [Example 19-1, (S)-3-Amino-1-(4-chloro-5-isoquinolinesulfonyl)pyrrolidine]
inhibition in vivo at 3000 µM [1]: ≥ 20%
intraocular pressure reducing action in single drug group 1 (intraocular pressure): exceeding that of the control group
inhibition at 10 µM [2]: ≥ 50%

CN[C@H]1CCN(S(=O)(=O)c2cccc3cncc(C)c23)C1 [Example 8-3]
inhibition in vivo at 3000 µM [1]: ≥ 20%
inhibition in vivo at 1000 µM [1]: ≥ 20%
inhibition at 10 µM [2]: ≥ 50%
